Laboratory results: patent US6395748B2, “Tropane-derivatives, their preparation and use” (NeuroSearch A/S, priority 1996, dated 2002)

What was measured:
[1] = biological target: T1, dopamine transporter (Rattus norvegicus, UniProt P23977); assay: In vitro inhibition of 3H-dopamine (3H-DA) uptake in striatal synaptosomes; type: biochemical
T1 construct: Corpi striati from male Wistar rats (150-200 g) are homogenized; from tissue; host or cells: rat striatal synaptosomes (P2 pellet)
Description: Monoamine oxidase activity will be inhibited in the presence of pargyline. The homogenate is centrifuged at 1000×g for 10 min. The resulting supernatant is then centrifuged at 27,000×g for 50 min and the supernatant is discarded.
(§1) After incubation the samples are poured directly onto Whatman GF/C glass fibre filters under suction. The filters are then washed three times with 5 ml of ice-cold 0.9% (w/v) NaCl solution. The amount of radioactivity on the filters is determined by conventional liquid scintillation counting. Specific uptake is calculated as the difference between total uptake and non-specific uptake.

[2] = biological target: T2, serotonin transporter (Rattus norvegicus, UniProt P31652); assay: In vitro inhibition of 3H-5-hydroxytryptamine (3H-5-HT, serotonin) uptake in cortical synaptosomes; type: biochemical
T2 construct: Cerebral cortices from male Wistar rats (150-200 g) are homogenized; from tissue; host or cells: rat cerebral cortex synaptosomes (P2 pellet)
T2 sequence (P31652 whole entry): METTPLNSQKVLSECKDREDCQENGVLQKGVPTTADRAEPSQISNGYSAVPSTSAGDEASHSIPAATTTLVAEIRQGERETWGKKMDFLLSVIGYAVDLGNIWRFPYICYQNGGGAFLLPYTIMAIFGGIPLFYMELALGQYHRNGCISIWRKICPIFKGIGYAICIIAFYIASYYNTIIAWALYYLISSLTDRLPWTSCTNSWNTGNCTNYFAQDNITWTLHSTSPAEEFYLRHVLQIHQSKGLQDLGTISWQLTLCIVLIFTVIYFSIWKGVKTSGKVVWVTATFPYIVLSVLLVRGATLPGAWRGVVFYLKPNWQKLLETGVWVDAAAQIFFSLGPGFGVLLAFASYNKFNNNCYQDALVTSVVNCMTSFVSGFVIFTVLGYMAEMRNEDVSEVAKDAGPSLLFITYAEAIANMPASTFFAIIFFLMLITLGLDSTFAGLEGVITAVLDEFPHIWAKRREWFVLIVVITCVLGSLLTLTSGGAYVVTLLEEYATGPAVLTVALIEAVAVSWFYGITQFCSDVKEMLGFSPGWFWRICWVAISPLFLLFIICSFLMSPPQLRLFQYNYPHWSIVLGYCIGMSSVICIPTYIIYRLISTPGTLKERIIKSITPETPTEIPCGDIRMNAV
Description: Tissue preparation: Preparations are performed at 0-4° C. unless otherwise indicated. […] Monoamine oxidase activity will be inhibited in the presence of pargyline. The homogenate is centrifuged at 1000×g for 10 min.
as §1, with “Non-specific uptake is determined using citalopram (1 μM, final concentration). After” for “After”

T1 sequence (P23977 whole entry): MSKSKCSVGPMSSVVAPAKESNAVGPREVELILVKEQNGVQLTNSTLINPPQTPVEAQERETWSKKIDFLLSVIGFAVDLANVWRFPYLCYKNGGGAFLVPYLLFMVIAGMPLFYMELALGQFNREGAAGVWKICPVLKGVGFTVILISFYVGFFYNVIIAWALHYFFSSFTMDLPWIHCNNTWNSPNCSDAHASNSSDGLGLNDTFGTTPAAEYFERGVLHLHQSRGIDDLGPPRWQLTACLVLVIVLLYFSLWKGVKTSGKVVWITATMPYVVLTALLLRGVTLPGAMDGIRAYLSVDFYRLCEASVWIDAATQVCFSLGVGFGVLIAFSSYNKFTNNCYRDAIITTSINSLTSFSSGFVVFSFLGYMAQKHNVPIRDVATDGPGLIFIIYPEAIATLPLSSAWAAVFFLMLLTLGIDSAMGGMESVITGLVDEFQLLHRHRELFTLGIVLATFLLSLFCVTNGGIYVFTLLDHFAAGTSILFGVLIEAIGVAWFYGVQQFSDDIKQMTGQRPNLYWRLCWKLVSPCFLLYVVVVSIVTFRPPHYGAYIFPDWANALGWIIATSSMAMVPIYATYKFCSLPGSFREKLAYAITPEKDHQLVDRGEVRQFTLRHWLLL

With CN1[C@H]2CC[C@@H]1[C@H](CSc1ccccc1)[C@@H](c1ccc(Cl)c(Cl)c1)C2 [(1R,2R,3S)-2-phenylthiomethyl-3-(3,4-dichlorophenyl)-tropane] the IC50 [1] was 4.3 nM and the IC50 [2] was 9.2 nM.
